Measurements reported in patent publication US9512111B2, “N-sulfonylated tetrahydroquinolines and related bicyclic compounds for inhibition of RORγ activity and the treatment of disease” (Lycera Corporation, priority 2010, dated 2016).

These molecules were tested against T1, RORγ-LBD (Homo sapiens, UniProt P51449) (assay: RORγ-Ligand Binding Domain TR-FRET Assay). Conditions: Table 8, indazoles.
T1 construct: HIS-tagged RORγ-LBD was recombinantly expressed in SF9 cells; made in house; host or cells: SF9 cells (baculovirus); unpurified lysate
T1 sequence (P51449 269-508 limits assumed): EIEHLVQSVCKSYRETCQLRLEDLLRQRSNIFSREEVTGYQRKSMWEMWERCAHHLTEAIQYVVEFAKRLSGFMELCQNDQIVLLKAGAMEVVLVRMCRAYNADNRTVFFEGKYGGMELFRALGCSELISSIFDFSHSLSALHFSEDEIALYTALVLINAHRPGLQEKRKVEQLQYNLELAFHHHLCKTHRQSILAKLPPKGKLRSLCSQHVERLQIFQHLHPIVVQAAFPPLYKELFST
Format: biochemical
Protocol: HIS-tagged RORγ-LBD was recombinantly expressed in SF9 cells using a baculovirus expression system. The protein was not purified. Cells were lysed and the lysate was used as a source for RORγ-LBD for the assay. A 1:80 dilution of RORγ-LBD lysate in assay buffer (25 mM HEPES pH 7.0, 100 mM NaCl, 0.01% Tween, 0.1% BSA) was prepared and 5 μL was added to each well (RORγ-LBD final concentration ˜10 nM). Control wells received lysate from SF9 cells not expressing RORγ-LBD.
Compounds to be tested were diluted to 100× final test concentration in DMSO and further diluted to 4× final test concentration using assay buffer to provide the test compound mixture. An aliquot (5 μL) of the test compound mixture was added to each well.
A 4× stock of biotinylated-LXXLL peptide from SRC1-2 (Biotin-[…]) was prepared in assay buffer and a 5 μL aliquot added to each well (450 nM final concentration). A 4× solution of europium tagged anti-HIS antibody (2 nM final concentration) and APC conjugated streptavidin (60 nM final concentration) were prepared and a 5 μL aliquot added to each well.
The final assay mixture was incubated for 4 hours to overnight, and the fluorescence signal was measured on an Envision plate reader: (Excitation filter=340 nm; APC emission=665 nm; Europium emission=615 nm; dichroic mirror=D400/D630; delay time=100 μs, integration time=200 μs).
IC50 values for test compounds were calculated from the quotient of the fluorescence signal at 665 nm divided by the fluorescence signal at 615 nm using GraphPad Prism software.

| SMILES | IC50 |
| --- | --- |
| C=Cc1nn(S(=O)(=O)c2cccc(C(F)(F)F)c2)c2cc(NC(=O)c3c(F)cccc3Cl)ccc12 [Compound 9, 2-Chloro-6-fluoro-N-[1-(3-trifluoromethylbenzenesulfonyl)-3-vinyl-1H-indazol-6-yl]benzamide] | < 15 µM |
| O=C(Nc1ccc2c(C(O)CO)nn(S(=O)(=O)c3cccc(C(F)(F)F)c3)c2c1)c1c(F)cccc1Cl (stereo not drawn) [Compound 10, 2-Chloro-N-[3-(1,2-dihydroxyethyl)-1-(3-trifluoromethylbenzenesulfonyl)-1H-indazol-6-yl]-6-fluorobenzamide] | < 15 µM |
| O=C(Nc1ccc2c(CO)nn(S(=O)(=O)c3cccc(C(F)(F)F)c3)c2c1)c1c(F)cccc1Cl [Compound 11, 2-Chloro-6-fluoro-N-[3-hydroxymethyl-1-(3-trifluoromethylbenzene-sulfonyl)-1H-indazol-6-yl]benzamide] | < 15 µM |
| Cc1cccc(F)c1C(=O)Nc1ccc2cnn(S(=O)(=O)c3cccc(C(F)(F)F)c3)c2c1 [Compound V-1] | < 15 µM |
| Cc1ncc(CC(=O)Nc2ccc3cnn(S(=O)(=O)c4cccc(C(C)(C)C)c4)c3c2)s1 [Compound V-2] | < 15 µM |
| Cc1ncc(CC(=O)Nc2ccc3cnn(S(=O)(=O)c4cccc(OC(F)F)c4)c3c2)s1 [Compound V-3] | < 15 µM |
| CC(=O)c1cccc(S(=O)(=O)n2ncc3ccc(NC(=O)Cc4cnc(C)s4)cc32)c1 [Compound V-4] | < 15 µM |
| Cc1cccc(S(=O)(=O)n2ncc3ccc(NC(=O)Cc4cnc(C)s4)cc32)c1 [Compound V-5] | < 15 µM |
| Cc1ncc(CC(=O)Nc2ccc3cnn(S(=O)(=O)c4cccc(Cl)c4)c3c2)s1 [Compound V-6] | < 15 µM |
| COc1cccc(S(=O)(=O)n2ncc3ccc(NC(=O)Cc4cnc(C)s4)cc32)c1 [Compound V-7] | < 15 µM |
| Cc1cccc(Cl)c1C(=O)Nc1ccc2cnn(S(=O)(=O)c3cccc(C(F)(F)F)c3)c2c1 [Compound V-8] | < 15 µM |
| N#Cc1nn(S(=O)(=O)c2cccc(C(F)(F)F)c2)c2cc(NC(=O)c3c(F)cccc3Cl)ccc12 [Compound V-9] | < 15 µM |
| Cc1cccc(S(=O)(=O)n2nc(-c3ccc(C(=O)O)cc3)c3ccc(NC(=O)c4c(F)cccc4Cl)cc32)c1 [Compound V-10] | < 15 µM |
| CC(C)(C)c1cccc(S(=O)(=O)n2ncc3ccc(NC(=O)c4c(F)cccc4C(F)(F)F)cc32)c1 [Compound V-11] | < 15 µM |
| CC(=O)c1cccc(S(=O)(=O)n2ncc3ccc(NC(=O)c4c(F)cccc4C(F)(F)F)cc32)c1 [Compound V-12] | < 15 µM |
| Cc1nn(C(F)F)cc1S(=O)(=O)n1ncc2ccc(NC(=O)c3c(F)cccc3F)cc21 [Compound V-13] | < 15 µM |
| Cc1nn(C(F)F)cc1S(=O)(=O)n1ncc2ccc(NC(=O)Cc3cc(F)cc(F)c3)cc21 [Compound V-14] | < 15 µM |
| CC(=O)c1cccc(S(=O)(=O)n2ncc3ccc(NC(=O)Cc4cc(F)cc(F)c4)cc32)c1 [Compound V-15] | < 15 µM |
| COc1cccc(S(=O)(=O)n2ncc3ccc(NC(=O)Cc4cc(F)cc(F)c4)cc32)c1 [Compound V-16] | < 15 µM |
| Cc1nn(C(F)F)cc1S(=O)(=O)n1ncc2ccc(NC(=O)Cc3ccc(F)c(F)c3)cc21 [Compound V-17] | < 15 µM |
| O=C(Cc1ccc(F)c(F)c1)Nc1ccc2cnn(S(=O)(=O)c3cccc(OC(F)F)c3)c2c1 [Compound V-18] | < 15 µM |
| CC(=O)c1cccc(S(=O)(=O)n2ncc3ccc(NC(=O)Cc4ccc(F)c(F)c4)cc32)c1 [Compound V-19] | < 15 µM |
| Cc1cccc(S(=O)(=O)n2ncc3ccc(NC(=O)Cc4ccc(F)c(F)c4)cc32)c1 [Compound V-20] | < 15 µM |

Continued, values first:

| IC50 | SMILES |
| --- | --- |
| < 15 µM | Cc1nn(C(F)F)cc1S(=O)(=O)n1ncc2ccc(NC(=O)c3c(Cl)cccc3C(F)(F)F)cc21 [Compound V-21] |
| < 15 µM | Cc1nn(C(F)F)cc1S(=O)(=O)n1ncc2ccc(NC(=O)Cc3ccc(F)cc3)cc21 [Compound V-22] |
| < 15 µM | CC(C)(C)c1cccc(S(=O)(=O)n2ncc3ccc(NC(=O)Cc4ccc(F)cc4)cc32)c1 [Compound V-23] |
| < 15 µM | CC(=O)c1cccc(S(=O)(=O)n2ncc3ccc(NC(=O)Cc4ccc(F)cc4)cc32)c1 [Compound V-24] |
| < 15 µM | Cc1cccc(S(=O)(=O)n2ncc3ccc(NC(=O)Cc4ccc(F)cc4)cc32)c1 [Compound V-25] |
| < 15 µM | COc1cccc(S(=O)(=O)n2ncc3ccc(NC(=O)Cc4ccc(F)cc4)cc32)c1 [Compound V-26] |
| < 15 µM | Cc1nn(C(F)F)cc1S(=O)(=O)n1ncc2ccc(NC(=O)Cc3ccc(Cl)cc3)cc21 [Compound V-27] |
| < 15 µM | CC(C)(C)c1cccc(S(=O)(=O)n2ncc3ccc(NC(=O)Cc4ccc(Cl)cc4)cc32)c1 [Compound V-28] |
| < 15 µM | O=C(Cc1ccc(Cl)cc1)Nc1ccc2cnn(S(=O)(=O)c3cccc(OC(F)F)c3)c2c1 [Compound V-29] |
| < 15 µM | CC(=O)c1cccc(S(=O)(=O)n2ncc3ccc(NC(=O)Cc4ccc(Cl)cc4)cc32)c1 [Compound V-30] |
| < 15 µM | Cc1cccc(S(=O)(=O)n2ncc3ccc(NC(=O)Cc4ccc(Cl)cc4)cc32)c1 [Compound V-31] |
| < 15 µM | COc1cccc(S(=O)(=O)n2ncc3ccc(NC(=O)Cc4ccc(Cl)cc4)cc32)c1 [Compound V-32] |
| < 15 µM | O=C(Nc1ccc2cnn(S(=O)(=O)c3ccc(F)c(C(F)(F)F)c3)c2c1)c1c(Cl)cccc1C(F)(F)F [Compound V-33] |
| < 15 µM | CC(C)(C)c1cccc(S(=O)(=O)n2ncc3ccc(NC(=O)c4c(Cl)cccc4C(F)(F)F)cc32)c1 [Compound V-34] |
| < 15 µM | O=C(Nc1ccc2cnn(S(=O)(=O)c3cccc(OC(F)F)c3)c2c1)c1c(Cl)cccc1C(F)(F)F [Compound V-35] |
| < 15 µM | CC(=O)c1cccc(S(=O)(=O)n2ncc3ccc(NC(=O)c4c(Cl)cccc4C(F)(F)F)cc32)c1 [Compound V-36] |
| < 15 µM | Cc1cccc(S(=O)(=O)n2ncc3ccc(NC(=O)c4c(Cl)cccc4C(F)(F)F)cc32)c1 [Compound V-37] |

Same assay, conditions: benzoxazines, Table 9

| IC50 | SMILES |
| --- | --- |
| < 15 µM | CNCC1CN(S(=O)(=O)c2ccc(F)cc2)c2cc(NC(=O)c3c(F)cccc3Cl)ccc2O1 (stereo not drawn) [Compound 14] |
| > 15 µM | O=C(Nc1ccc2c(c1)N(S(=O)(=O)c1ccc(F)cc1)CCO2)c1c(F)cccc1Cl [Compound 17, 2-Chloro-6-fluoro-N-(4-((4-fluorophenyl)sulfonyl)-3,4-dihydro-2H-benzo[b][1,4]oxazin-6-yl)benzamide] |
| > 15 µM | O=C(Nc1ccc2c(c1)N(S(=O)(=O)c1ccc(F)cc1)C[C@H](CO)O2)c1c(F)cccc1Cl [Compound 18, (R)-2-Chloro-6-fluoro-N-(4-((4-fluorophenyl)sulfonyl)-2-(hydroxymethyl)-3,4-dihydro-2H-benzo[b][1,4]oxazin-6-yl)benzamide] |
| < 15 µM | N#CC[C@H]1CN(S(=O)(=O)c2ccc(F)cc2)c2cc(NC(=O)c3c(F)cccc3Cl)ccc2O1 [Compound 19, (S)-2-Chloro-N-(2-(cyanomethyl)-4-((4-fluorophenyl)sulfonyl)-3,4-dihydro-2H-benzo[b][1,4]oxazin-6-yl)-6-fluorobenzamide] |
| < 15 µM | O=C(Nc1ccc2c(c1)N(S(=O)(=O)c1ccc(F)cc1)C(CO)CO2)c1c(F)cccc1Cl (stereo not drawn) [Compound 23, 2-Chloro-6-fluoro-N-[4-(4-fluorobenzenesulfonyl)-3-hydroxymethyl-3,4-dihydro-2H-benzo[1,5]oxazin-6-yl]benzamide] |
